Measured values: the NIST ThermoML archive (doi:10.1016/j.jct.2015.08.021)

Tests used:
[1] = refractive index (Na D-line) (dimensionless); xn = mol fraction of the nth substance listed; conditions: 101.3 kPa, Liquid, Standard Abbe refractometry
[2] = relative permittivity at various frequencies (dimensionless); xn = mol fraction of the nth substance listed; conditions: 101.3 kPa, Liquid, Frequency=0.1 MHz, Coaxial cylinder capacitor
[3] = 298.15 K; 101.33 kPa; Liquid; Vibrating tube method
[4] = refractive index (Na D-line) (dimensionless); conditions: 101.3 kPa, Liquid, Standard Abbe refractometry
[5] = relative permittivity at various frequencies (dimensionless); conditions: 101.3 kPa, Liquid, Frequency=0.1 MHz, Coaxial cylinder capacitor

C1COCCO1 [1,4-dioxane] + CCCCCO
Conditions	refractive index, 298.15 K	refractive index, 308.15 K	refractive index, 318.15 K	relative permittivity, 298.15 K	relative permittivity, 308.15 K	relative permittivity, 318.15 K
[1], x2 = 0	1.4202	1.4144	1.4086	–	–	–
[1], x2 = 0.1	1.4181	1.4121	1.407	–	–	–
[1], x2 = 0.2	1.4161	1.4103	1.4055	–	–	–
[1], x2 = 0.3	1.4144	1.4088	1.4042	–	–	–
[1], x2 = 0.4	1.4128	1.4074	1.403	–	–	–
[1], x2 = 0.501	1.4114	1.4063	1.4021	–	–	–
[1], x2 = 0.599	1.4104	1.4055	1.4014	–	–	–
[1], x2 = 0.699	1.4096	1.4048	1.4008	–	–	–
[1], x2 = 0.801	1.409	1.4044	1.4004	–	–	–
[1], x2 = 0.9	1.4086	1.4042	1.4002	–	–	–
[2], x2 = 0	–	–	–	2.229	2.209	2.187
[2], x2 = 0.1	–	–	–	2.657	2.587	2.527
[2], x2 = 0.2	–	–	–	3.255	3.124	3.024
[2], x2 = 0.3	–	–	–	4.016	3.77	3.63
[2], x2 = 0.4	–	–	–	4.941	4.63	4.402
[2], x2 = 0.501	–	–	–	6.082	5.652	5.34
[2], x2 = 0.599	–	–	–	7.387	6.781	6.332
[2], x2 = 0.699	–	–	–	8.915	8.18	7.529
[2], x2 = 0.801	–	–	–	10.714	9.793	8.951
[2], x2 = 0.9	–	–	–	12.796	11.622	10.578

CCCCCO [pentan-1-ol]
Conditions	mass density [kg/m3]
[3]	811.1

Conditions	refractive index, 298.15 K	refractive index, 308.15 K	refractive index, 318.15 K	relative permittivity, 298.15 K	relative permittivity, 308.15 K	relative permittivity, 318.15 K
[4]	1.4082	1.4041	1.4001	–	–	–
[5]	–	–	–	15.11	13.72	12.391

OCCCCO [1,4-butanediol]
Conditions	mass density [kg/m3]
[3]	1013.4

Conditions	refractive index, 298.15 K	refractive index, 308.15 K	refractive index, 318.15 K	relative permittivity, 298.15 K	relative permittivity, 308.15 K	relative permittivity, 318.15 K
[4]	1.4445	1.4417	1.4393	–	–	–
[5]	–	–	–	31.587	29.482	27.203

C1COCCO1 [1,4-dioxane]
Conditions	mass density [kg/m3]
[3]	1027.86

Conditions	refractive index, 298.15 K	refractive index, 308.15 K	refractive index, 318.15 K	relative permittivity, 298.15 K	relative permittivity, 308.15 K	relative permittivity, 318.15 K
[4]	1.4202	1.4144	1.4086	–	–	–
[5]	–	–	–	2.229	2.209	2.187

CC(C)CCO [3-methylbutan-1-ol]
Conditions	mass density [kg/m3]
[3]	807.16

Conditions	refractive index, 298.15 K	refractive index, 308.15 K	refractive index, 318.15 K	relative permittivity, 298.15 K	relative permittivity, 308.15 K	relative permittivity, 318.15 K
[4]	1.4048	1.4011	1.3973	–	–	–
[5]	–	–	–	14.93	13.402	12.051

CCCCCO [pentan-1-ol] + C1COCCO1
x1 = 1
Conditions	refractive index, 298.15 K	refractive index, 308.15 K	refractive index, 318.15 K	relative permittivity, 298.15 K	relative permittivity, 308.15 K	relative permittivity, 318.15 K
[1]	1.4082	1.4041	1.4001	–	–	–
[2]	–	–	–	15.11	13.72	12.391

CC(C)CCO [3-methylbutan-1-ol] + C1COCCO1
Conditions	refractive index, 298.15 K	refractive index, 308.15 K	refractive index, 318.15 K	relative permittivity, 298.15 K	relative permittivity, 308.15 K	relative permittivity, 318.15 K
[1], x1 = 0.1	1.4177	1.4125	1.4069	–	–	–
[1], x1 = 0.203	1.4151	1.4105	1.4054	–	–	–
[1], x1 = 0.301	1.4133	1.4088	1.4039	–	–	–
[1], x1 = 0.4	1.4114	1.4072	1.4026	–	–	–
[1], x1 = 0.5	1.4098	1.4057	1.4012	–	–	–
[1], x1 = 0.601	1.4084	1.4045	1.4001	–	–	–
[1], x1 = 0.699	1.4072	1.4034	1.3992	–	–	–
[1], x1 = 0.8	1.4063	1.4023	1.3984	–	–	–
[1], x1 = 0.899	1.4054	1.4013	1.3978	–	–	–
[1], x1 = 1	1.4048	1.4011	1.3973	–	–	–
[2], x1 = 0.1	–	–	–	2.694	2.634	2.57
[2], x1 = 0.203	–	–	–	3.292	3.168	3.055
[2], x1 = 0.301	–	–	–	4.014	3.804	3.632
[2], x1 = 0.4	–	–	–	4.91	4.629	4.376
[2], x1 = 0.5	–	–	–	6.024	5.611	5.239
[2], x1 = 0.601	–	–	–	7.327	6.743	6.232
[2], x1 = 0.699	–	–	–	8.82	8.037	7.343
[2], x1 = 0.8	–	–	–	10.64	9.655	8.702
[2], x1 = 0.899	–	–	–	12.649	11.434	10.315
[2], x1 = 1	–	–	–	14.93	13.402	12.051
